Patent US20090286722A1 (priority 2005, published 2009)

Legend:
[1] = system: ob/ob mice; experiment: 24 hour plasma glucose and insulin profile after a single dose in non-fasted ob/ob mice; assay type: in vivo
Excerpt: Dose of 12.5 nmol kg^−1 was chosen to evaluate the longer-term duration of action of a single dose of native or fatty acid derivatised GIP in non-fasted ob/ob mice.

[2] = system: ob/ob mice; experiment: Glucose tolerance 4 hours after peptide administration in 18 hour fasted ob/ob mice; assay type: in vivo; details: 25 nmoles/kg, glucose 18 mmoles/kg
[3] = biological target: dipeptidyl peptidase IV (Sus scrofa, UniProt P22411); experiment: DPP IV degradation, % intact peptide by HPLC; assay type: in vitro ADME, porcine; details: pig, purified porcine dipeptidyl peptidase IV (DPP IV), 37° C., pH 7.8
Sequence of dipeptidyl peptidase IV (P22411 whole entry): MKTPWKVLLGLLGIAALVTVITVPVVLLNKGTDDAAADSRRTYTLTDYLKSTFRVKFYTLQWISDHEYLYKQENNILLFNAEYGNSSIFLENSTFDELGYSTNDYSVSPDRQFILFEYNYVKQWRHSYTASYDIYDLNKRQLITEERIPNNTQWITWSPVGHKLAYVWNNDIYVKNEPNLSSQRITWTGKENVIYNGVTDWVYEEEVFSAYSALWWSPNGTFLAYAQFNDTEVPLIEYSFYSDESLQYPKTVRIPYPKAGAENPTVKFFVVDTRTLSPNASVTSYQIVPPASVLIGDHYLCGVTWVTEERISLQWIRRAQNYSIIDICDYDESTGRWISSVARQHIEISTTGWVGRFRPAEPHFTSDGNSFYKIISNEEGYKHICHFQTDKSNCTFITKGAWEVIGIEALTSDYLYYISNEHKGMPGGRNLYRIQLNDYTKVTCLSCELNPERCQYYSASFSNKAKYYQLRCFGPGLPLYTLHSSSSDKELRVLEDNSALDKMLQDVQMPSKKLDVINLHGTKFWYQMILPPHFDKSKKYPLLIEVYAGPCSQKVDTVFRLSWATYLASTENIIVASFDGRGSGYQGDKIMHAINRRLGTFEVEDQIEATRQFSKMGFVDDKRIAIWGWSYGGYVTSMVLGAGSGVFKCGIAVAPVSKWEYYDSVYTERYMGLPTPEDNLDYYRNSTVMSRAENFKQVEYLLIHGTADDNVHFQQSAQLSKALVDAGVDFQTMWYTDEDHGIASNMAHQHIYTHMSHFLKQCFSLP
Description: (§1) HPLC peak area data were used to calculate the percentage intact peptide remaining at the various time points during the incubation.

[4] = biological target: purified porcine dipeptidyl peptidase IV (Sus scrofa, UniProt P22411); experiment: DPP IV degradation, % intact peptide by HPLC; assay type: in vitro ADME; details: 37° C., pH 7.8
Sequence of purified porcine dipeptidyl peptidase IV (P22411 whole entry): as above
Description: as §1

[5] = system: ob/ob mice; experiment: Acute glucose lowering and insulin release, peptide given i.p. with glucose to 18 hour fasted ob/ob mice
Description: (§2) Obese diabetic (ob/ob) mice derived from the colony maintained at Aston University, UK (23) were used at 12-16 weeks of age. […] Drinking water and standard rodent maintenance diet (Trouw Nutrition, Cheshire, UK) were freely available.
(§3) Food intake and body weight were recorded daily from 5 days before commencement of the treatment regimes. Plasma glucose and insulin concentrations (10:00 h) were monitored at 2-4 day intervals. […] All acute tests were commenced at 10:00 h. […] Serum samples were taken for determination of glucagon concentrations. All other blood samples were collected from the cut tip of the tail vein of conscious mice into chilled fluoride/heparin coated glucose microcentrifuge tubes (Sarstedt, Nümbrecht, Germany) at the times indicated in the Figures. Blood samples were immediately centrifuged using a Beckman microcentrifuge (Beckman Instruments, Galway, Ireland) for 30 seconds at 13,000×g. The resulting plasma was then aliquoted into fresh tubes and stored at −20° C. prior to glucose and insulin determinations.

[6] = system: DPP IV; details: cited: O'Harte 2002; Irwin 2005; cited from earlier work
[7] = system: ob/ob mice; experiment: Once daily i.p. injection for 14 days in ob/ob mice
Description: as §2, §3

[8] = 25 nmol/kg i.p. with glucose 18 mmol/kg
[9] = after 14 daily injections, glucose 18 mmoles/kg
[10] = after 14 days, glucose 18 mmoles/kg with native GIP

## CCCCCCCCCCCCCCCC(=O)NCCCC[C@H](NC(=O)[C@H](Cc1c[nH]c2ccccc12)NC(=O)[C@H](CC(=O)O)NC(=O)[C@H](CC(N)=O)NC(=O)[C@H](CCCCN)NC(=O)[C@H](CCCCN)NC(=O)CNC(=O)[C@H](CCCCN)NC(=O)[C@H](CCC(N)=O)NC(=O)[C@H](C)NC(=O)[C@H](CC(C)C)NC(=O)[C@H](CC(C)C)NC(=O)[C@H](Cc1c[nH]c2ccccc12)NC(=O)[C@H](CC(N)=O)NC(=O)[C@@H](NC(=O)[C@H](Cc1ccccc1)NC(=O)[C@H](CC(=O)O)NC(=O)[C@H](CCC(N)=O)NC(=O)[C@H](CCC(N)=O)NC(=O)[C@H](Cc1c[nH]cn1)NC(=O)[C@@H](NC(=O)[C@H](CCCCN)NC(=O)[C@H](CC(=O)O)NC(=O)[C@H](CCSC)NC(=O)[C@H](C)NC(=O)[C@@H](NC(=O)[C@H](CO)NC(=O)[C@H](Cc1ccc(O)cc1)NC(=O)[C@H](CC(=O)O)NC(=O)[C@H](CO)NC(=O)[C@@H](NC(=O)[C@H](Cc1ccccc1)NC(=O)[C@@H](NC(=O)CNC(=O)[C@H](CCC(=O)O)NC(=O)[C@H](C)NC(=O)[C@@H](N)Cc1ccc(O)cc1)[C@@H](C)O)[C@@H](C)CC)[C@@H](C)CC)[C@@H](C)CC)C(C)C)C(=O)N[C@@H](Cc1c[nH]cn1)C(=O)N[C@@H](CC(N)=O)C(=O)N[C@H](C(=O)N[C@H](C(=O)N[C@@H](CCC(N)=O)C(=O)O)[C@@H](C)O)[C@@H](C)CC [GIP(LysPAL^37)]
[1]; single 12.5 nmol/kg i.p.
  effect on plasma glucose over 24 hours: significant (P<0.01) and sustained decrease
  glucose concentrations at 24 hours and AUC values versus native GIP or saline treated controls: significantly less
  insulin concentrations from 4 to 24 hours versus controls: not significantly different
[1]; single injection
  time for which decline of plasma glucose was sustained after single injection: at least 24 hours
[2]
  insulinotropic properties 4 hours after administration: less evident
[2]; versus saline
  reduction of glycaemic excursion following i.p. glucose 4 hours after administration: 18%
[3]; 2 h incubation with DPP IV (5 mU), read-out: % Intact peptide remaining after time (h) 2
  remaining at 2 h, 2 mM: 100%
[3]; 8 h incubation with DPP IV (5 mU), read-out: % Intact peptide remaining after time (h) 8
  remaining at 8 h, 2 mM: 100%
[3]; 24 h incubation with DPP IV (5 mU), read-out: % Intact peptide remaining after time (h) 24
  remaining at 24 h, 2 mM: 100%
[4]; 0 h incubation with DPP IV (5 mU)
  % Intact peptide remaining after time (h) 0: 100%
[4]; 24 h incubation with DPP IV (5 mU)
  % Intact peptide remaining after time (h) 24: remained fully intact
[5]; [8]
  glucose AUC response compared to native GIP: significant reduction
  plasma glucose concentrations and AUC (0-60 min) compared to glucose alone: significantly reduced
[5]; 25 nmol/kg i.p. with glucose, insulin AUC 0-60 min
  overall enhancement of insulin release over native GIP: 2.7 fold
[6]
  resistance to DPP IV degradation: increased resistance to DPP IV degradation
[7]; 25 nmoles/kg/day, 14 days
  effect on body weight: no effect
  effect on food intake: no effect
  non-fasting plasma insulin concentrations (tendency towards elevated): did not achieve statistical significance
[7]; 25 nmoles/kg/day, day 14
  non-fasting plasma glucose concentrations at 14 days versus control: significantly (p<0.05) lowered
  plasma glucagon on day 14 versus control: no differences observed
[7]; after 14 daily injections
  islet area compared with saline-treated ob/ob mice: significant increases
  number of pancreatic islets compared with saline-treated ob/ob mice: significant increases
  pancreatic insulin content compared with saline-treated controls: did not affect
  pancreatic weight compared with saline-treated controls: did not affect
[7]; [9]
  insulinotropic response following i.p. glucose versus control: augmented
  overall glycaemic excursion after i.p. glucose versus control: significantly reduced
[7]; after 14 days, 18 hours fasted
  plasma glucose response to 15 minutes feeding, at 15 minutes: significantly lowered
  plasma insulin response to 15 minutes feeding, at 15 minutes: significantly increased
[7]; after 14 days, 18 hours fasted, AUC 0-105 min
  overall insulinotropic response to feeding: overall increased insulinotropic response
[7]; after 14 days, insulin 50 U/kg i.p.
  hypoglycemic action of insulin (insulin sensitivity), AUC and post injection values versus controls: significantly augmented
[7]; [10]
  glycaemic excursions after glucose with native GIP compared to control animals: significantly decreased
  overall glucose-dependent insulinotropic response to native GIP: significantly augmented
[7]; long-term administration
  adverse effects following long-term administration: No adverse effects were observed
